Data as given in patent publication US20250215091A1, “Anti-GAL3 Antibodies and Compositions” (Les Laboratoires Servier, priority 2022, published 2025).

Experiments:
[1] = test system: murine model of bleomycin-induced fibrosis; test: Bleomycin-induced murine lung fibrosis model: Modified Ashcroft fibrosis score; assay type: in vivo, mice; details: for attenuation of lung fibrosis (overall): day 21, FIG. 15
Description: (§1) Control bleomycin mice named ‘Bleo’ received an administration of 1.65 mg/kg bleomycin by the oropharyngeal route on Day 1. […] Antibody-treated mice also received an administration of 1.65 mg/kg bleomycin by the oropharyngeal route on Day 1 and a subcutaneous injection of 20 mg/kg antibody, starting on day minus one and on days 4, 8, 12, 16 and 20. Each antibody was solubilized in sterile, endotoxin-free PBS before injection. Mice that received bleomycin were also treated by oropharyngeal administration of 0.5 mg/kg of TD139 compound (Bleo-TD139), a small molecule Gal3 inhibitor, starting on day 12 and every 2 days until day 20. TD139 was initially dissolved in 100% DMSO.
Mice were submitted for terminal euthanasia on day 21. The lungs were collected for histopathological examination and gravity inflation-fixed with 10% neutral buffered formalin (NBF) before being immersion fixed in NBF.
Sections were taken and then placed on three slides as indicated by the code numbers on FIG. 14.
Three longitudinal sections parallel to and bisecting the main stem bronchus were trimmed from the left lung and right caudal lung lobes and mounted in cassettes 01 and 02, respectively. The right cranial, middle and accessory lung lobes were sectioned longitudinally and mounted in cassette 03. All sections were stained with picrosirius red and scored in a blinded manner by a certified veterinary pathologist using the Modified Ashcroft fibrosis score (0-8), where “0” corresponds to “normality (no fibrosis) and “8” corresponds to the highest possible fibrosis score, as described by Hübner et al. (2008) but based on assessment across the whole section of lung.

plasma Gal3 = test: HOCI-induced murine fibrosis model: plasma Gal3 (ELISA); assay type: in vivo, mice; details: first experiment, day 42; FIG. 10
Description: (§2) In a first experiment, control mice (n=12) received a daily intradermal injection of 300 μL of sterile phosphate buffer saline (PBS) for 5 consecutive days per week, for a duration of 42 days. HOCI alone and HOCI with antibody (HOCI-antibody) treated mice (n=12 per group) received a daily intradermal injection of 300 μL of HOCI for 5 consecutive days per week, for a duration of 42 days. Antibody-treated mice also received a subcutaneous injection of 20 mg/kg antibody, starting at day minus one and every 5 days between day 5 and day 40. Each antibody was solubilized in sterile, endotoxin-free PBS before injection. In a second experiment, the same protocol was applied, except that duration of the study was 63 days and antibodies were given every 7 days starting at day minus 1 until day 62.
(§3) Mice that received daily injection of HOCI were also treated by intratracheal instillation of 0.5 mg/kg of TD139 compound (HOCI-TD139), a small molecule Gal3 inhibitor. In a first experiment, the administrations started from day 21 and the compound was given every 3 days until day 39. In a second experiment, the administrations started from day 20 and the compound was given every 3 days until day 62. TD139 was initially dissolved in 100% DMSO then diluted 50-fold in endotoxin-free PBS before administration.
In the first experiment, the plasma levels of Gal3 were measured at day minus 1 (before antibody administration) and at termination day (day 42) using a mouse Galectin-3 DuoSet ELISA kit (R&D Systems, DY1197) according to the manufacturer's instructions. Plasma samples were diluted 1:200 in order to fit with the dynamic range of the assay.

[2] = test system: murine model of HOCI-induced fibrosis; test: HOCI-induced murine fibrosis model: skin thickness; assay type: in vivo, mice; details: first experiment, 42 days; antibody 20 mg/kg s.c.; TD139 0.5 mg/kg intratracheal; vs HOCI group; FIG. 7A
Description: as §2, §3
The evolution of skin thickness was monitored by using an external caliper, every seven days until sacrifice.

plasma IL-6 = test: HOCI-induced murine fibrosis model: plasma IL-6 (MSD); assay type: in vivo, mice; details: first experiment, day 42; vs HOCI group; FIG. 9
Description: as §2, §3
(§4) In the first experiment, a mixed effect model with repeated measurements was performed on Control group, HOCI treated group, HOCI-antibody- and HOCI-TD139-treated groups. The impact of HOCI administration on plasma IL-6 and IL-5 levels was evaluated compared to the control group. The impact of antibody and TD139 treatments was compared to the HOCI group (FIG. 9). IL-6 and IL-5 were quantified by using the MSD technology from Mesoscale.

[3] = test system: genes differentially regulated between HOCI group and control group in whole blood cells; test: HOCI-induced murine fibrosis model: whole blood RNA sequencing; assay type: in vivo, mice; details: of 510 genes differentially regulated HOCI vs control; day 42, whole blood
Description: as §2, §3
In the first experiment, global gene expression was examined at day 42 in whole blood cells by RNA sequencing.
Whole blood was collected in RNA protect tubes (Qiagen) and were processed for RNA extraction using the RNeasy Protect Animal blood kit with the optional on-column DNAse I digestion. Total RNA samples were quantified on Nanodrop 2000 (ThermoFisher Scientific™) and analyzed on Bioanalyzer (Agilent) using RNA 6000 Nano chips to determine RNA quality (RIN). Total RNA matching the QC criteria were included in the study. Purified RNA samples were used as input for the TruSeq Strand-specific RNA-seq (poly A selection and globin depletion) according to manufacturer's protocol (Illumina). […]
Raw reads were processed using the in-house RNAExp Expression pipeline 2.1 and the quality was assessed using FastQC tools. Then, reads were trimmed for adaptors using Cutadapt and trimmed reads were aligned to mouse mm39 reference genome using the STAR aligner. Aligned data were evaluated for quality using Samtools and Picard tools. Then, aligned reads per gene were quantified using FeatureCount. […] Read count were normalized by the variance stabilizing transformation vst function from DESeq2 R package.
55,416 genes were detected in the data. […] Genes differentially expressed between groups were determined using a linear model (ImFit function from limma R package) on vst transformation gene expression dataset. […]

plasma IL-5 = test: HOCI-induced murine fibrosis model: plasma IL-5 (MSD); assay type: in vivo, mice; details: first experiment, day 42; vs HOCI group; FIG. 9
Description: as §2, §3, §4

[4] = test system: murine model of bleomycin-induced fibrosis; test: Bleomycin-induced murine lung fibrosis model: body weight and body weight metrics; assay type: in vivo, mice; details: for reduction of median Time to baseline (TTB): median TTB 20 days for untreated bleomycin group; for reduction of median Time to baseline (TTB) / reduction of median Time to weight growth (TWG): FIG. 13; for reduction of median Time to weight growth (TWG): median TWG 10 days for untreated bleomycin group
Description: as §1
Mice were weighed daily. Their growth curves are represented on FIG. 12. Control mice had normal growth with a mean percent increase of 6.4% of their initial body weight measured on day minus 1.
Body weight metrics were assessed by using two parameters called Time to weight growth (TWG) and Time to baseline (TTB), shown on FIG. 13. Time to weight growth corresponds to the point of inflection when mice show an ascending growth curve and start to regain weight within the course of the experiment. Time to baseline corresponds to the number of days required for mice to recover their initial body weight (day minus 1). The median TWG was 10 days for the untreated bleomycin group. […] TD139 compound had no efficacy on this parameter (p-value 0.53).

[5] = test system: murine model of HOCI-induced fibrosis; test: HOCI-induced murine fibrosis model: skin and lung collagen (Picrosirius red); assay type: in vivo, mice; details: first experiment; for lung collagen levels: day 42, FIG. 8A; for skin collagen levels: day 42, vs HOCI group, FIG. 8B
Description: as §2, §3
At the day of study termination of the first experiment (day 42), skin and lung samples were taken, formalin-fixed and processed to individual paraffin wax blocks. Sections of skin and lung were cut from the blocks and, after rehydration, stained with Picrosirius Red coloration according to the manufacturer's protocol. Subsequently, each slide was examined and remotely analyzed employing the web-based Image J software

plasma TNF alpha = test: Rat ARDS model (LPS challenge): plasma TNF alpha (MSD); assay type: in vivo; details: 4 h following LPS challenge; vs LPS group; FIG. 18
Description: (§5) Positive control rats received 3 doses of sterile phosphate buffer at day minus 11, minus 6 and minus 1 prior LPS challenge (0.25 mg/kg by subcutaneous route at day 1). Negative control rats received one oral dose of Dexamethasone at 10 mg/kg (dissolved in 0.5% carboxymethyl cellulose in deionized water) 2 hours prior LPS challenge (0.25 mg/kg by subcutaneous route at day 1). LPS (lipopolysaccharide) causes an acute inflammatory response, whereas dexamethasone has anti-inflammatory effects thus being the reference treatment in this model.
(§6) Antibody-treated rats received 3 doses of antibodies (14 mg/kg) at day minus 11, minus 6 and minus 1 prior to LPS challenge (0.25 mg/kg by subcutaneous route at day 1). Each antibody was solubilized in sterile PBS before injection.
(§7) Control rats of the experiment received 3 doses of sterile phosphate buffer at day minus 11, minus 6 and minus 1 without LPS challenge at day 1.
For all rats, plasma sampling was performed 4 h following LPS challenge.
The impact of anti-Gal3 antibody treatment in LPS challenged rats were evaluated on plasma cytokine levels, namely TNF alpha and KC-GRO cytokines, and compared to the positive control group (LPS challenge with PBS treatment) (respectively FIG. 18A and FIG. 18B). TNF alpha and KC-GRO were quantified by using the MSD technology from Mesoscale.

rat model of ARDS [6] = test: Rat ARDS model (LPS challenge): neutrophils counts in BALF; assay type: in vivo; details: antibodies 14 mg/kg x3 prior to LPS; dexamethasone 10 mg/kg oral; vs LPS group; FIG. 16
Description: as §5, §6, §7
(§8) The impact of anti-Gal3 antibody treatment in LPS challenged rats were evaluated by quantification of neutrophils in Bronchoalveolar Lavage Fluid and compared to the positive control group (LPS challenge with PBS treatment) (FIG. 16). […] Neutrophils numeration levels were decreased after treatment with anti-inflammatory dexamethasone.

rat model of ARDS [7] = test: Rat ARDS model (LPS challenge): total BALF protein (BCA assay); assay type: in vivo; details: antibodies 14 mg/kg x3 prior to LPS; dexamethasone 10 mg/kg oral; vs LPS group; FIG. 17
Description: as §5, §6, §7
as §8, with “proteins (by BCA assay)” for “neutrophils”, “BALF” for “Bronchoalveolar Lavage Fluid”, “17). The presence of protein in BALF reflects the damage to the air-blood barrier.” for “16).”, “Total BALF protein” for “Neutrophils”

## OC[C@H]1O[C@@H](S[C@@H]2O[C@H](CO)[C@H](O)[C@H](n3cc(-c4cccc(F)c4)nn3)[C@H]2O)[C@H](O)[C@@H](n2cc(-c3cccc(F)c3)nn2)[C@H]1O [TD139, reference compound]
[1]; day 21
  mice having a lung fibrosis score of 2 and 3: 50.6%
[1]; day 21, 49.3% for untreated bleomycin group
  mice having a lung fibrosis score of 4 and 5: 49.4%
[1]
  attenuation of lung fibrosis (overall): did not show any sign of anti-fibrotic efficacy
Plasma Gal3
  plasma Gal3 levels: restored the plasma Gal3 levels to values similar to those of the control group
[2]
  HOCI-induced increase in skin thickness: lower decrease in skin thickness than with either antibody, reaching statistical significance only at days 28 and 42
Plasma IL-6
  plasma IL-6 levels: no activity
[3]
  number of HOCI-dysregulated genes counteracted by treatment: 7 genes
  percentage of HOCI-dysregulated genes counteracted by treatment: 1.37%
Plasma IL-5
  plasma IL-5 levels: decreased significantly
[4]
  reduction of median Time to baseline (TTB): no efficacy
  reduction of median Time to weight growth (TWG): no efficacy
[4]; untreated bleomycin group +1.9%, control mice 6.4%
  mean percent weight increase on day 21 compared to day minus 1: 2.9%
[5]
  lung collagen levels: restored lung collagen levels to those of control mice
  skin collagen levels: significantly reduced

B1: D06: anti-Gal3 monoclonal antibody, IgG1 format; VH SEQ ID NO 38, VL SEQ ID NO 39 (antibody, V domains shown)
VH: EVQLVESGGSLVKPGGSLRLSCAASGFTFSNYNMNWVRQAPGKGLEWISSIYGSSRYIYYADFVKGRFTISRDNAKNSLYLQMNSLRAEDTAVYYCVRSGYGGMDVWGRGTLVTVSS
VL: QSVLTQPASVSGSPGQSITISCAGTSSDVGGYNGVSWYQQHPGKAPKLMIYYDSYRPSGVSNRFSGSKSGNTASLTISGLQAEDEADYYCSSGTDYSTRVFGGGTKLEIK
modifications: IgG1 constant region
Plasma TNF alpha
  TNF alpha plasma levels: also decreased, displaying an intermediary profile
[1]; day 21, 7.4% in untreated bleomycin group
  frequency of animals with fibrosis score of 2: 30%
[1]; day 21, 87.6% in untreated bleomycin group
  frequency of animals with median fibrosis scores of 3 or 4: 64.5%
[1]
  attenuation of lung fibrosis (overall): clear evidence for attenuation of lung fibrosis
Rat model of ARDS [6]
  neutrophils counts in BALF: also decreased
Rat model of ARDS [7]
  total BALF protein: also decreased
[4]; bleomycin 1.65 mg/kg, antibody 20 mg/kg s.c.
  body weight status on day 21: full weight recovery
[4]; bleomycin 1.65 mg/kg, antibody 20 mg/kg s.c., FIG. 12
  recovery of body weight: more rapid recovery of body weight
[4]
  reduction of median Time to baseline (TTB): 5.5 days
  reduction of median Time to weight growth (TWG): 2.8 days
[5]
  lung collagen levels: restored lung collagen levels to those of control mice
  skin collagen levels: non significant downward trend
